# Assay results published in PubChem BioAssay AID328 (DTP/NCI, 2004).
# Where “and” joins values, the source holds several entries; their conditions need not be identical. Identical values can stand only once. Toxic doses and inconclusive results are not listed.
# Tested on: BDF1 mice, P388 leukemia ip, median survival T/C
# Test: NCI In Vivo Anticancer Drug Screen. Data for tumor model P388 Leukemia (intraperitoneal) in B6D2F1 (BDF1) mice
# Details: endpoint: median survival time, higher = longer survival
# Method in brief: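 T/C = treated-group survival ÷ vehicle-control survival; tumour transplanted into mice before dosing.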
# [1] = dose: 6.25 mg/kg/injection, schedule: Q01DX009 (ip), vehicle: saline with Tween-80
# [2] = dose: 12.5 mg/kg/injection, schedule: Q01DX009 (ip), vehicle: saline with Tween-80
# [3] = dose: 25.0 mg/kg/injection, schedule: Q01DX009 (ip), vehicle: saline with Tween-80
# [4] = dose: 100.0 mg/kg/injection, schedule: Q04DX003 (ip), vehicle: saline
# [5] = dose: 6.25 mg/kg/injection, schedule: Q01DX009 (ip), vehicle: saline
# [6] = dose: 12.5 mg/kg/injection, schedule: Q01DX009 (ip), vehicle: saline
# [7] = dose: 50.0 mg/kg/injection, schedule: Q01DX009 (ip), vehicle: saline
# [8] = dose: 50.0 mg/kg/injection, schedule: Q01DX009 (ip), vehicle: saline with Tween-80
# [9] = dose: 100.0 mg/kg/injection, schedule: Q01DX009 (ip), vehicle: saline with Tween-80
# [10] = dose: 200.0 mg/kg/injection, schedule: Q01DX009 (ip), vehicle: saline with Tween-80
compound,measurement,setting,value
Cc1ccc(NC(=O)N(CCCl)N=O)c(C)c1,T/C,[1],90 % of control
same,T/C,[2],159 % of control
same,T/C,[3],118 % of control
O=C(CCCc1ccc(N(CCCl)CCCl)cc1)Nc1ncccn1,T/C,"dose: 2.0 mg/kg/injection, schedule: Q01DX009 (ip), vehicle: Klucel (hydroxypropylcellulose) (HPC)",88 % of control
same,T/C,"dose: 3.0 mg/kg/injection, schedule: Q01DX009 (ip), vehicle: Klucel (hydroxypropylcellulose) (HPC)",115 % of control
same,T/C,"dose: 6.0 mg/kg/injection, schedule: Q01DX009 (ip), vehicle: Klucel (hydroxypropylcellulose) (HPC)",152 % of control
same,T/C,"dose: 8.0 mg/kg/injection, schedule: Q01DX009 (ip), vehicle: Klucel (hydroxypropylcellulose) (HPC)",188 % of control
same,T/C,"dose: 18.0 mg/kg/injection, schedule: Q01DX009 (ip), vehicle: Klucel (hydroxypropylcellulose) (HPC)",112 % of control
same,T/C,"dose: 25.0 mg/kg/injection, schedule: Q01DX009 (ip), vehicle: Klucel (hydroxypropylcellulose) (HPC)",92 % of control
CCC1/C=C/C=C/CC(C)C(O)C(C)(O)C(=O)C(C)C(O)C(C)C(=O)C(C)C(O)C(C)/C=C/C(=O)OC2C(C)C(CC1)OC1(OC(CC(C)O)C(C)CC1=O)C2C (stereo not drawn) (tested in a mixture with another compound),T/C,"dose: 0.15 mg/kg/injection, schedule: Q01DX010 (ip), vehicle: carboxymethylcellulose (CMC)",110 % of control
same,T/C,"dose: 0.15 mg/kg/injection, schedule: Q01DX010 (ip), vehicle: saline",109 % of control
same,T/C,"dose: 0.3 mg/kg/injection, schedule: Q01DX010 (ip), vehicle: carboxymethylcellulose (CMC)",110 % of control
same,T/C,"dose: 0.3 mg/kg/injection, schedule: Q01DX010 (ip), vehicle: saline",150 % of control and 154 % of control
same,T/C,"dose: 0.6 mg/kg/injection, schedule: Q01DX010 (ip), vehicle: carboxymethylcellulose (CMC)",120 % of control
same,T/C,"dose: 0.6 mg/kg/injection, schedule: Q01DX010 (ip), vehicle: saline",154 % of control
same,T/C,"dose: 1.2 mg/kg/injection, schedule: Q01DX010 (ip), vehicle: carboxymethylcellulose (CMC)",190 % of control
same,T/C,"dose: 1.2 mg/kg/injection, schedule: Q01DX010 (ip), vehicle: saline",163 % of control
same,T/C,"dose: 2.5 mg/kg/injection, schedule: Q01DX009 (ip), vehicle: saline",154 % of control
same,T/C,"dose: 2.5 mg/kg/injection, schedule: Q01DX010 (ip), vehicle: saline",154 % of control
same,T/C,"dose: 5.0 mg/kg/injection, schedule: Q01DX009 (ip), vehicle: saline",163 % of control
same,T/C,"dose: 37.0 micrograms/kg/injection, schedule: Q01DX010 (ip), vehicle: saline",120 % of control
same,T/C,"dose: 150.0 micrograms/kg/injection, schedule: Q01DX010 (ip), vehicle: saline",150 % of control
O=C1CCN2C=CC=CC2=N1,T/C,[4],104 % of control
same,T/C,"dose: 200.0 mg/kg/injection, schedule: Q04DX003 (ip), vehicle: saline",100 % of control
same,T/C,"dose: 400.0 mg/kg/injection, schedule: Q04DX003 (ip), vehicle: saline",95 % of control
C#CCOc1ccccc1/C(Cl)=N/Nc1ccc([N+](=O)[O-])cc1[N+](=O)[O-],T/C,"dose: 1.56 mg/kg/injection, schedule: Q01DX009 (ip), vehicle: saline with Tween-80",106 % of control
same,T/C,"dose: 3.12 mg/kg/injection, schedule: Q01DX009 (ip), vehicle: saline with Tween-80",97 % of control
same,T/C,[1],100 % of control
CCC[CH2][Hg][O]C(C)=O,T/C,"dose: 3.13 mg/kg/injection, schedule: Q01DX009 (ip), vehicle: saline with Tween-80",115 % of control
same,T/C,"dose: 3.13 mg/kg/injection, schedule: Q04DX003 (ip), vehicle: saline sonified",110 % of control
same,T/C,"dose: 4.16 mg/kg/injection, schedule: Q01DX009 (ip), vehicle: saline",114 % of control
same,T/C,[5],114 % of control
same,T/C,"dose: 6.25 mg/kg/injection, schedule: Q04DX003 (ip), vehicle: saline sonified",120 % of control
same,T/C,"dose: 8.25 mg/kg/injection, schedule: Q04DX003 (ip), vehicle: saline sonified",109 % of control
same,T/C,[2],100 % of control
same,T/C,"dose: 12.5 mg/kg/injection, schedule: Q04DX003 (ip), vehicle: saline sonified",118 % of control
ClCCCN1CCCCC1CCl (stereo not drawn),T/C,"dose: 3.12 mg/kg/injection, schedule: Q04DX003 (ip), vehicle: saline",102 % of control
same,T/C,[5],242 % of control
same,T/C,[6],254 % of control and 96 % of control
same,T/C,"dose: 12.5 mg/kg/injection, schedule: Q04DX003 (ip), vehicle: saline",151 % of control
same,T/C,"dose: 25.0 mg/kg/injection, schedule: Q04DX003 (ip), vehicle: saline",236 % of control and 182 % of control
same,T/C,"dose: 40.0 mg/kg/injection, schedule: Q04DX003 (ip), vehicle: saline",90 % of control
Br/C(=N\Nc1nn[nH]n1)c1ccccc1,T/C,"dose: 100.0 mg/kg/injection, schedule: Q04DX003 (ip), vehicle: saline with Tween-80",87 % of control
same,T/C,"dose: 200.0 mg/kg/injection, schedule: Q04DX003 (ip), vehicle: saline with Tween-80",91 % of control
same,T/C,"dose: 400.0 mg/kg/injection, schedule: Q04DX003 (ip), vehicle: saline with Tween-80",91 % of control
NC(=Nc1ccc(Cl)cc1)/N=C(/N)N1CCN(/C(N)=N/C(N)=Nc2ccc(Cl)cc2)CC1,T/C,[6],120 % of control
same,T/C,"dose: 16.5 mg/kg/injection, schedule: Q01DX009 (ip), vehicle: saline",116 % of control
same,T/C,"dose: 25.0 mg/kg/injection, schedule: Q01DX001 (ip), vehicle: saline",104 % of control
same,T/C,"dose: 37.5 mg/kg/injection, schedule: Q01DX009 (ip), vehicle: saline",150 % of control
same,T/C,"dose: 50.0 mg/kg/injection, schedule: Q01DX001 (ip), vehicle: saline",113 % of control
same,T/C,"dose: 50.0 mg/kg/injection, schedule: Q04DX003 (ip), vehicle: saline",100 % of control
same,T/C,"dose: 100.0 mg/kg/injection, schedule: Q01DX001 (ip), vehicle: saline",109 % of control
same,T/C,[4],115 % of control
same,T/C,"dose: 150.0 mg/kg/injection, schedule: Q01DX001 (ip), vehicle: Klucel (hydroxypropylcellulose) (HPC)",116 % of control
CC1(C)C=CN2C(=O)C3=CCCN3C(=O)C2CC12Nc1ccccc1C2=O (stereo not drawn),T/C,[5],94 % of control
same,T/C,[6],104 % of control
same,T/C,"dose: 25.0 mg/kg/injection, schedule: Q01DX009 (ip), vehicle: saline",110 % of control
same,T/C,[7],100 % of control
O=C(Nc1ccccc1)N(C(=O)C(F)(F)F)c1ccccc1,T/C,[8],95 % of control
same,T/C,[9],92 % of control
same,T/C,[10],90 % of control
CC(=O)C1=CC2(OC3CCC(O)(C(=O)CO)C(C)O3)C(=O)c3c(cc4cccc(O)c4c3O)CC2C(O)C1O (stereo not drawn),T/C,"dose: 19.0 mg/kg/injection, schedule: Q01DX010 (ip), vehicle: carboxymethylcellulose (CMC)",100 % of control
same,T/C,"dose: 38.0 mg/kg/injection, schedule: Q01DX010 (ip), vehicle: carboxymethylcellulose (CMC)",100 % of control
same,T/C,"dose: 75.0 mg/kg/injection, schedule: Q01DX010 (ip), vehicle: carboxymethylcellulose (CMC)",104 % of control
same,T/C,"dose: 150.0 mg/kg/injection, schedule: Q01DX010 (ip), vehicle: carboxymethylcellulose (CMC)",104 % of control
COc1cccc2c1CCCC2=O,T/C,"dose: 50.0 mg/kg/injection, schedule: Q01DX009 (ip), vehicle: Klucel (hydroxypropylcellulose) (HPC)",96 % of control
same,T/C,"dose: 100.0 mg/kg/injection, schedule: Q01DX009 (ip), vehicle: Klucel (hydroxypropylcellulose) (HPC)",104 % of control
same,T/C,"dose: 200.0 mg/kg/injection, schedule: Q01DX009 (ip), vehicle: Klucel (hydroxypropylcellulose) (HPC)",104 % of control
CNc1ccccc1O,T/C,[8],102 % of control
same,T/C,[9],98 % of control
same,T/C,[10],95 % of control
Cn1c2ccccc2c(=S)c2ccccc21,T/C,"dose: 100.0 mg/kg/injection, schedule: Q01DX001 (ip), vehicle: saline with Tween-80",89 % of control
same,T/C,"dose: 200.0 mg/kg/injection, schedule: Q01DX001 (ip), vehicle: saline with Tween-80",90 % of control
CCCCCCCCCCCC[N+](C)(C)C (tested in a mixture with another compound),T/C,"dose: 9.2 mg/kg/injection, schedule: Q01DX009 (ip), vehicle: saline",107 % of control
C=C(C)C(=O)NCCCCCC(=O)Oc1ccc([N+](=O)[O-])cc1,T/C,[2],95 % of control
same,T/C,[3],116 % of control
same,T/C,[8],86 % of control and 106 % of control
same,T/C,[10],86 % of control
CC1(C)OC1CC1=CC(=O)C=CC1=O (stereo not drawn),T/C,[3],108 % of control
same,T/C,[8],103 % of control
same,T/C,[9],100 % of control
same,T/C,[10],117 % of control
NC(=O)c1c(N)sc2c1CCCC2,T/C,[1],86 % of control
same,T/C,[2],86 % of control
same,T/C,[3],95 % of control
CN=C1N[N+]2=C(C)CSCC2(C)S1 (stereo not drawn),T/C,[7],100 % of control
same,T/C,"dose: 100.0 mg/kg/injection, schedule: Q01DX009 (ip), vehicle: saline",100 % of control
same,T/C,"dose: 200.0 mg/kg/injection, schedule: Q01DX009 (ip), vehicle: saline",97 % of control
